From patent US6686382B2, “Sulfonamides and derivatives thereof that modulate the activity of endothelin” (Encysive Pharmaceuticals Inc., priority 1999, dated 2004)
Where two headings read alike, the source gives them in different places.

Experiments:
human ETA receptors = biological target: T1, human ETA receptors (Homo sapiens, UniProt P25101); assay: Endothelin binding inhibition, Binding Test #1: inhibition of binding to ETA receptors (TE 671 cell membranes); conditions: relative to N-(4-chloro-3-methyl-5-isoxazolyl)-2-{[3,4-(methylenedioxy)-6-methylphenyl)acetyl]-thiophene-3-sulfonamide (= 1.0)
T1 construct: endogenous in cells; host or cells: TE 671 cells (ATCC HTB 139), membrane preparation
T1 sequence (P25101 21-427): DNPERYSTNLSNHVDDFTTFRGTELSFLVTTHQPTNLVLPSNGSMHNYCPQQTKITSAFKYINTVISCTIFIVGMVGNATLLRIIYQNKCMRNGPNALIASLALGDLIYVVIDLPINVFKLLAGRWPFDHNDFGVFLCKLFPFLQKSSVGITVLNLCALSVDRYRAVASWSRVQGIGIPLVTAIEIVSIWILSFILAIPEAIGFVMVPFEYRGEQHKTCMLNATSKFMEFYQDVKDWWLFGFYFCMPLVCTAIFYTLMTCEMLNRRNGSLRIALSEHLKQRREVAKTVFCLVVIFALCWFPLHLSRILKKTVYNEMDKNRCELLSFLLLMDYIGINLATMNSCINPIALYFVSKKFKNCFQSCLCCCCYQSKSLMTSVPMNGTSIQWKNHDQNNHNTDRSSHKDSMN
Description: (§1) Compounds that are potential endothelin antagonists are identified by testing their ability to compete with ^125I-labeled ET-1 for binding to human ETA receptors or ETB receptors present on isolated cell membranes. The effectiveness of the test compound as an antagonist or agonist of the biological tissue response of endothelin can also be assessed by measuring the effect on endothelin induced contraction of isolated rat thoracic aortic rings. The ability of the compounds to act as antagonists or agonists for ETB receptors can be assess by testing the ability of the compounds are to inhibit endothelin-1 induced prostacyclin release from cultured bovine aortic endothelial cells.
(§2) A. Endothelin Binding Inhibition—Binding Test #1: Inhibition of Binding to ETA Receptors
(§3) TE 671 cells (ATCC Accession No. HTB 139) express ETA receptors. These cells were grown to confluence in T-175 flasks. Cells from multiple flasks were collected by scraping, pooled and centrifugedfor 10 min at 190×g. The cells were resuspended in phosphate buffered saline (PBS) containing 10 mM EDTA using a Tenbroeck homogenizer. The suspension was centrifuged at 4° C. at 57,800×g for 15 min, the pellet was resuspended in 5 ml of buffer A (5 mM HEPES buffer, pH 7.4 containing aprotinin (100 KIU/ml)) and then frozen and thawed once. 5 ml of Buffer B (5 mM HEPES Buffer, pH 7.4 containing 10 mM MnCl2 and 0.001% deoxyribonuclease Type 1) was added, the suspension mixed by inversion and then incubated at 37° C. for 30 minutes. The mixture was centrifuged at 57,800×g as described above, the pellet washed twice with buffer A and then resuspended in buffer C (30 mM HEPES buffer, pH 7.4 containing aprotinin (100 KIU/ml) to give a final protein concentration of 2 mg/ml and stored at −70° C. until use.
(§4) The membrane suspension was diluted with binding buffer (30 mM HEPES buffer, pH 7.4 containing 150 mM NaCl, 5 mM MgCl2, 0.5% Bacitracin) to a concentration of 8 μg/50 μl. ^125I-endothelin-1 (3,000 cpm, […]) was added to 50 μL of either: (A) endothelin-1 (for non specific binding) to give a final concentration 80 nM); (B) binding buffer (for total binding); or (C) a test compound (final concentration 1 nM to 100 μM). The membrane suspension (50 μL), containing up to 8 μg of membrane protein, was added to each of (A), (B), or (C). Mixtures were shaken, and incubated at 4° C. for 16-18 hours, and then centrifuged at 4° C. for 25 min at 2,500×g. Alternatively, the incubation was conducted at 24° C. […] This, must be kept in mind when comparing IC50 concentrations among compounds provided herein.
(§5) The supernatant, containing unbound radioactivity, was decanted and the pellet counted on a Genesys multiwell gamma counter. The degree of inhibition of binding (D) was calculated according to the following equation: [formula]
Each test was generally performed in triplicate.

[1] = system: ETA receptors and ETB receptors; assay: Endothelin binding inhibition, ETA (TE 671) and ETB (transfected COS7) receptors: selectivity; design: species or system human; conditions: antagonism of ETA receptors over ETB receptors
Description: as §1, §2, §3, §4, §5
B. Endothelin Binding Inhibition—Binding Test #2: Inhibition of Binding to ETB Receptors
COS7 cells were transfected with DNA encoding the ETB receptor, The resulting cells, which express the human ETB receptor, were grown to confluence in T-150 flasks. Membrane was prepared as described above. The binding assay was performed as described above using the membrane preparation diluted with binding buffer to a concentration of 1 μg/50 μl.
Briefly, the COS7 cells, described above, that had been transfected with DNA encoding the ETB receptor and express the human ETB receptor on their surfaces were grown to confluence in T-175 flasks. […]

[2] = Pharmacokinetic properties (oral availability, elimination half-life, Cmax); assay type: in vivo
Description: As used herein, bioavailability or oral availability refers to the rate and extent of absorption. Methods for determining bioavailability or oral availability are well known to those of skill in the art. For example, bioavailability or oral availability of any of the compounds described herein can be determined empirically by administration of the compound to an animal, followed by taking blood samples over time and measuring the blood concentration of the compound. In vivo half life (t1/2) is defined as the time it takes for the concentration of the compound in the blood to be reduced by one-half. Estimations of the area under the curve for intravenous administration can be used to estimate the area under the curve for oral administration, yielding bioavailability data. See, e.g., Milo Gibal (1991) Biopharmaceutics and Pharmacology, 4th edition (Lea and Sediger).

ETA receptor = conditions: read-out: IC50, inhibition of 125I-labelled endothelin-1 binding, cited from earlier work
ETB receptors = conditions: concentrations up to 100 μM; cited from earlier work
isolated vascular strips = conditions: read-out: EC50, contractile agent; cited from earlier work

Cc1cc(C)c(NC(=O)c2sccc2S(=O)(=O)Nc2onc(C)c2Cl)c(-c2ncco2)c1 [Compound 44, 3-{[(4-chloro-3-methyl-5-isoxazolyl)amino]sulfonyl}-N-[2,4-dimethyl-6-(1,3-oxazol-2-yl)phenyl]-2-thiophenecarboxamide]
ETA ACTIVITY (ETA antagonist activity relative to reference compound) (human ETA receptors): 17.9 | Selectivity (IC50 for ETB/IC50 for ETA) [1]: 119,000 | half-life ([2]; blood, read-out: t½ elim. (converted)): 318 min | Cmax ([2]; in vivo): 66 µg/mL | melting point: 176 to 178 °C

cyclo(D-Glu-L-Ala-allo-D-Ile-L-Leu-D-Trp) [BE-18257B]
IC50 (ETA receptor; aortic smooth muscle): 1400 nM | IC50 (ETA receptor; cultured aortic smooth muscle cells): 500 nM | IC50 (ETA receptor; ventricle membranes): 800 nM | inhibition of binding to receptors in tissues in which ETB receptors predominate (ETB receptors): fails to inhibit binding

endothelin-1: potent twenty-one amino acid peptide vasoconstrictor
EC50 (isolated vascular strips): 0.4 nM
